The experiment has as its system HBV. Briefly: Inhibition of HBV replication dot-blot assay in HBV-producing hepatoma cell line. The experiment is classed as cell-based. Particulars: Hepatitis B virus, 144 h; activity in Dot-Blot assay; HepG2-2.2.15 cells; reduction in HBV DNA levels, six days. The method, then: Compounds active in the HBV assembly assay are tested for their activity and toxicity in cellular assay. In the first anti-viral assay, the ability of compounds to inhibit HBV replication in an HBV-producing hepatoma cell line using the dot-blot method is evaluated.
(§1) Briefly, confluent monolayers of HepG2-2.2.15 cells are incubated with complete medium containing various concentrations of a test compound. Three days later, the culture medium is replaced with fresh medium containing the appropriately diluted test compound. Six days following the initial administration of the test compound, the cell culture supernatant is collected, and cell lysis is performed. The samples are applied onto Nylos membranes and DNA is immobilized to the membrane by UV cross-linking. After pre-hybridization, the HBV probe is added and the hybridization is performed overnight. The membranes are exposed to the KODAK films; antiviral activity is calculated from the reduction in HBV DNA levels (EC50). The EC50 for antiviral activity is calculated from the dose response curves of active compounds. Assay performance over time is monitored by the use of the standard positive control compounds ETV, BAY 41-4109, and HAP-1.
Selected compounds are tested for their activity and toxicity in cellular assay. In the first anti-viral assay, the ability of compounds to inhibit HBV replication in an HBV-producing hepatoma cell line using the dot-blot method is evaluated.
as §1, with “Confluent monolayers” for “Briefly, confluent monolayers”, “lysis was” for “lysis is”

Each structure is given as a SMILES string.

`CN(C)C(=O)C1CCC(Sc2cc(C(=O)Nc3cc(F)c(F)c(F)c3)ccc2F)CC1` (mixture of isomers) [Compound 103, (cis/trans)-3-((4-(Dimethylcarbamoyl)cyclohexyl)thio)-4-fluoro-N-(3,4,5-trifluorophenyl)benzamide] gave an EC50 of less than 10 µM.

Compound `O=C(Nc1cc(F)c(F)c(F)c1)c1ccc(F)c(SC2CCC(C(=O)N3CCCCC3)CC2)c1` (mixture of isomers) [Compound 104, (cis/trans)-4-Fluoro-3-((4-(piperidine-1-carbonyl)cyclohexyl)thio)-N-(3,4,5-trifluorophenyl)benzamide] showed a 50% effective concentration (EC50) of less than 10 µM.

`O=C(O)CC1CCC(Sc2cc(C(=O)Nc3ccc(F)c(Cl)c3)ccc2F)CC1` (mixture of isomers) [Compound 106, (cis/trans)-2-(4-((5-((3-Chloro-4-fluorophenyl)carbamoyl)-2-fluorophenyl)thio)cyclohexyl)acetic acid] registered an EC50 of less than 10 µM.

For the compound `O=C(O)CC1CCC(Sc2cc(C(=O)Nc3cc(F)c(F)c(F)c3)ccc2F)CC1` (mixture of isomers) [Compound 107, (cis/trans)-2-(4-((5-((3,4,5-trifluorophenyl)carbamoyl)-2-fluorophenyl)thio)cyclohexyl)acetic acid], the EC50 is less than 10 µM.

The compound `O=C(Nc1cc(F)c(F)c(F)c1)c1ccc(F)c(SC2CCC(C(=O)N3CCNCC3)CC2)c1` (mixture of isomers) [Compound 108, (cis/trans)-4-Fluoro-3-((4-(piperazine-1-carbonyl)cyclohexyl)thio)-N-(3,4,5-trifluorophenyl)benzamide] yielded an EC50 of less than 10 µM.

Take `O=C(Nc1ccc(F)c(Cl)c1)c1ccc(F)c(SCC2CCC(C(=O)O)CC2)c1` (mixture of isomers) [Compound 109, (cis/trans)-4-(((5-((3-Chloro-4-fluorophenyl)carbamoyl)-2-fluorophenyl)thio)methyl)cyclohexanecarboxylic acid]: the EC50 was less than 10 µM.

Compound `O=C(Nc1cc(F)c(F)c(F)c1)c1ccc(F)c(SCC2CCC(C(=O)O)CC2)c1` (mixture of isomers) [Compound 110, (cis/trans)-4-(((5-((3,4,5-trifluorophenyl)carbamoyl)-2-fluorophenyl)thio)methyl)cyclohexanecarboxylic acid] showed a concentration for a half-maximal effect (EC50) of less than 10 µM.

Consider `O=C1CCCCC(Sc2cc(C(=O)Nc3cc(F)c(F)c(F)c3)ccc2F)C1` (racemic) [Compound 12, (±)-4-Fluoro-3-((3-oxocydoheptyl)thio)-N-(3,4,5-trifluorophenyl)benzamide], for which the EC50 was less than 10 µM.

Compound `O=C1CCCCC(Sc2cc(C(=O)Nc3ccc(F)c(Cl)c3)ccc2F)C1` (racemic) [Compound 13, (±)-N-(3-Chloro-4-fluorophenyl)-4-fluoro-3-((3-oxocycloheptyl)thio)benzamide] came in with an EC50 of less than 10 µM.

Take `O=C(Nc1cc(F)c(F)c(F)c1)c1ccc(F)c(S[C@H]2CCCC[C@@H](O)C2)c1` (racemic) [Compound 14A, (±)-4-Fluoro-3-(((1S,3R)-3-hydroxycycloheptyl)thio)-N-(3,4,5-trifluorophenyl)benzamide]: the EC50 was less than 10 µM.

For `O=C(Nc1cc(F)c(F)c(F)c1)c1ccc(F)c(S[C@@H]2CCCC[C@@H](O)C2)c1` (racemic) [Compound 14B, (±)-4-Fluoro-3-(((1R,3R)-3-hydroxycycloheptyl)thio)-N-(3,4,5-trifluorophenyl)benzamide], the EC50 was less than 10 µM.

Compound `O=C(Nc1cc(F)c(F)c(F)c1)c1ccc(F)c(SC2CCCCC(F)C2)c1` (racemic) [Compound 15, (±)-4-Fluoro-3-((3-fluorocycloheptyl)thio)-N-(3,4,5-trifluorophenyl)benzamide] had an EC50 of less than 10 µM.

As for `O=C1CCCC(Sc2cc(C(=O)Nc3ccc(F)c(Cl)c3)ccc2F)C1` (racemic) [Compound 20, (±)N-(3-Chloro-4-fluorophenyl)-4-fluoro-3-((3-oxocyclohexyl)thio)benzamide], the EC50 was less than 10 µM.

The compound `O=C(Nc1ccc(F)c(Cl)c1)c1ccc(F)c(S[C@@H]2CCC[C@@H](O)C2)c1` (racemic) [Compound 21, (±)-N-(3-Chloro-4-fluorophenyl)-4-fluoro-3-(((1R,3R)-3-hydroxycyclohexyl)thio)benzamide] displayed an EC50 of less than 10 µM.

In turn, `O=C1CCC(Sc2cc(C(=O)Nc3ccc(F)c(Cl)c3)ccc2F)C1` (racemic) [Compound 22, (±)-N-(3-Chloro-4-fluorophenyl)-4-fluoro-3-((3-oxocyclopentyl)thio)benzamide] registered an EC50 of less than 10 µM.

On to `O=C(Nc1ccc(F)c(Cl)c1)c1ccc(F)c(S[C@H]2CC[C@H](O)C2)c1` (racemic) [Compound 25, (±)-N-(3-Chloro-4-fluorophenyl)-4-fluoro-3-(((1S,3S)-3-hydroxycyclopentyl)thio)benzamide], for which the concentration for a half-maximal effect (EC50) is less than 10 µM.

The compound `O=C(Nc1ccc(F)c(Cl)c1)c1ccc(F)c(SCC2CCOC2)c1` (racemic) [Compound 46, (±)-N-(3-Chloro-4-fluorophenyl)-4-fluoro-3-(((tetrahydrofuran-3-yl)methyl)thio)benzamide] came in with an EC50 of less than 10 µM.

Compound `O=C(Nc1ccc(F)c(Cl)c1)c1ccc(F)c(SC2CCCOC2)c1` (racemic) [Compound 64, (±)-N-(3-Chloro-4-fluorophenyl)-4-fluoro-3-((tetrahydro-2H-pyran-3-yl)thio)benzamide] yielded an EC50 of less than 10 µM.

In turn, `O=C(Nc1ccc(F)c(Cl)c1)c1ccc(F)c(SC2CCCCC2F)c1` (racemic) [Compound 72, (±)-N-(3-Chloro-4-fluorophenyl)-4-fluoro-3-((2-fluorocyclohexyl)thio)benzamide] returned an EC50 of less than 10 µM.

`O=C(O)CC1CCC(Sc2cc(C(=O)Nc3cc(F)c(F)c(F)c3)ccc2F)C1` (racemic) [Compound 101, (±)-2-(3-((2-Fluoro-5-((3,4,5-trifluorophenyl)carbamoyl)phenyl)thio)cyclopentyl)acetic acid] yielded an EC50 of less than 10 µM.

As for `O=C(O)CC1CCC(Sc2cc(C(=O)Nc3ccc(F)c(Cl)c3)ccc2F)C1` (racemic) [Compound 102, (±)-2-(3-((5-((3-Chloro-4-fluorophenyl)carbamoyl)-2-fluorophenyl)thio)cyclopentyl)acetic acid], the concentration giving a half-maximal response (EC50) was less than 10 µM.

The compound `O=C(O)CC1CCC(Sc2cc(C(=O)Nc3ccc(F)c(F)c3)ccc2F)C1` (racemic) [Compound 105, (±)-2-(3-((5-((3,4-Difluorophenyl)carbamoyl)-2-fluorophenyl)thio)cyclopentyl)acetic acid] yielded an EC50 of less than 10 µM.

`O=C(Nc1ccc(F)c(Cl)c1)c1ccnc(NS(=O)(=O)C2CCOC2)c1` (racemic) [Compound 161, (±)-N-(3-Chloro-4-fluorophenyl)-2-(tetrahydrofuran-3-sulfonamido)isonicotinamide] showed an EC50 of less than 10 µM.

`O=C(Nc1ccc(F)c(Cl)c1)c1ccnc(NS(=O)(=O)C2CCCOC2)c1` (racemic) [Compound 179, (±)-N-(3-Chloro-4-fluorophenyl)-2-(tetrahydro-2H-pyran-3-sulfonamido)isonicotinamide]: the EC50 is less than 10 µM.

Regarding `O=C(Nc1ccc(F)c(Cl)c1)c1cccc(NS(=O)(=O)C2CCOC2)c1` (racemic) [Compound 202, (±)-N-(3-chloro-4-fluorophenyl)-3-(tetrahydrofuran-3-sulfonamido)benzamide], the EC50 was less than 10 µM.

`O=C(Nc1ccc(F)c(Cl)c1)c1cccc(NS(=O)(=O)CC2CCCO2)c1` (racemic) [Compound 203, (±)-N-(3-chloro-4-fluorophenyl)-3-((tetrahydrofuran-2-yl)methylsulfonamido)benzamide] had an EC50 of less than 10 µM.

For `COCC(C)S(=O)(=O)Nc1cccc(C(=O)Nc2ccc(F)c(Cl)c2)c1` (racemic) [Compound 204, (±)-N-(3-chloro-4-fluorophenyl)-3-(2-methoxy-1-methylethylsulfonamido)benzamide], the EC50 was less than 10 µM.

On to `CC1OCCC1S(=O)(=O)Nc1cccc(C(=O)Nc2ccc(F)c(Cl)c2)c1` (racemic) [Compound 205, (±)-N-(3-chloro-4-fluorophenyl)-3-(2-methyltetrahydrofuran-3-sulfonamido)benzamide], for which the EC50 is less than 10 µM.

In turn, `O=C(Nc1ccc(F)c(Cl)c1)c1cccc(NS(=O)(=O)C2CS(=O)(=O)CC2O)c1` (racemic) [Compound 206, (±)-N-(3-chloro-4-fluorophenyl)-3-(4-hydroxy-1,1-dioxidotetrahydrothiophene-3-sulfonamido)benzamide] showed a 50% effective concentration (EC50) of less than 10 µM.

`O=C(Nc1cc(F)c(F)c(F)c1)c1ccc(F)c(SC2CCCC2)c1` [Compound 3, 3-(Cyclopentylthio)-4-fluoro-N-(3,4,5-trifluorophenyl)benzamide] showed an EC50 of less than 10 µM.

On to `CC(C)(C)Sc1cc(C(=O)Nc2cc(F)c(F)c(F)c2)ccc1F` [Compound 5, 3-(tert-Butylthio)-4-fluoro-N-(3,4,5-trifluorophenyl)benzamide], for which the concentration for a half-maximal effect (EC50) is less than 10 µM.

For orientation: EC50 means the concentration needed to bring the measured effect to its halfway point. Low readings indicate greater potency, high ones weaker potency.

(Values after patent publication EP3227262B1, “SULFIDE ALKYL AND PYRIDYL REVERSE SULFONAMIDE COMPOUNDS FOR HBV TREATMENT” (Novira Therapeutics Inc., priority 2014, dated 2016).)
